Measured values from ChEMBL document CHEMBL2074340, “Molecular characterization of human and rat organic anion transporter OATP-D” (Am J Physiol Renal Physiol, 2003).

What was measured:
[1] = biological target: T1, Solute carrier organic anion transporter family member 3A1 (Homo sapiens, UniProt Q9UIG8); assay: (§1) TP_TRANSPORTER: uptake in Xenopus laevis oocytes; assay type: functional, cell-based; details: oocyte
T1 sequence (Q9UIG8 whole entry): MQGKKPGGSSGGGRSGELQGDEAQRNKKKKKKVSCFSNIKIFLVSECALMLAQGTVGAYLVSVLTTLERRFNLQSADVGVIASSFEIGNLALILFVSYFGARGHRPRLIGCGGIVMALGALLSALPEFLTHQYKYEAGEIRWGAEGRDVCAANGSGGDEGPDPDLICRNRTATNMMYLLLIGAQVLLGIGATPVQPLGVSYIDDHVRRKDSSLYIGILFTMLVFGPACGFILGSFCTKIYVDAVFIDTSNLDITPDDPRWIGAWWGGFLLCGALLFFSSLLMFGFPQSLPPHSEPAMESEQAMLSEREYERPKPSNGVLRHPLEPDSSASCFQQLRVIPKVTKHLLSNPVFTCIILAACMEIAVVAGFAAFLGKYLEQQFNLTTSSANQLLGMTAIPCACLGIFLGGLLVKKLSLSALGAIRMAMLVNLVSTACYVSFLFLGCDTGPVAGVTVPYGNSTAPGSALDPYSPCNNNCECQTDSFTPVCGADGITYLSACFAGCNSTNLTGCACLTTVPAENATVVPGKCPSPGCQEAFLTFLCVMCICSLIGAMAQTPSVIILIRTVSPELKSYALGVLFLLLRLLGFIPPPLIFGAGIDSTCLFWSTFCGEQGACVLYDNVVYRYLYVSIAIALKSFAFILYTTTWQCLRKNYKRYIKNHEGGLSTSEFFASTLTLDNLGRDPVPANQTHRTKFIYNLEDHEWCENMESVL

[2] = biological target: T2, Solute carrier organic anion transporter family member 3A1 (Rattus norvegicus, UniProt Q99N02); assay: as §1; assay type: functional, cell-based; details: oocyte
T2 sequence (Q99N02 whole entry): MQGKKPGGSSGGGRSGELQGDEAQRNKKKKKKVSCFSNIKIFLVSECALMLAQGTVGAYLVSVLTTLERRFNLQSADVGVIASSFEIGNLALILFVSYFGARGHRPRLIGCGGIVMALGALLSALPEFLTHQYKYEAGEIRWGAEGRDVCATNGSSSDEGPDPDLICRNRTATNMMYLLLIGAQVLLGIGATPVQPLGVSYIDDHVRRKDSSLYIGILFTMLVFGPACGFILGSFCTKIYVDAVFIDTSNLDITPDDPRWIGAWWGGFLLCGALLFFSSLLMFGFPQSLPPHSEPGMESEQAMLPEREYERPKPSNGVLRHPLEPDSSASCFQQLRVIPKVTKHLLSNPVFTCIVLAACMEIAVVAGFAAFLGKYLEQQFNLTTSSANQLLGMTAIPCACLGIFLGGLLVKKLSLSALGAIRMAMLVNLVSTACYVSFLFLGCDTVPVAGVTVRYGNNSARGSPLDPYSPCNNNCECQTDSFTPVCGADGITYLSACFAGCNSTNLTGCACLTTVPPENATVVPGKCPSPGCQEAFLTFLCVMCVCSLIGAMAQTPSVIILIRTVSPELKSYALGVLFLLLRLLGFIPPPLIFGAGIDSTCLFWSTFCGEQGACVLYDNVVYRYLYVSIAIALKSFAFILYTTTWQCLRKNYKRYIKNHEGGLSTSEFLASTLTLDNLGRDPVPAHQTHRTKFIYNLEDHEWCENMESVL

[3] = biological target: T1, Solute carrier organic anion transporter family member 3A1; assay: TP_TRANSPORTER: inhibition of PGE2 uptake (PGE2: 0.015 uM) by Prostaglandin F2alpha at 0.15uM in Xenopus laevis oocytes; assay type: functional, cell-based; set-up: scale not given: the % may be the effect or the level left; details: oocyte
[4] = biological target: T3, Solute carrier organic anion transporter family member 3A1 (SLCO3A1/OATP3A1) (Homo sapiens, UniProt Q9UIG8); assay: TP_TRANSPORTER: inhibition of PGE2 uptake (PGE2: 0.015 uM) by Prostaglandin E1 at 0.15uM in Xenopus laevis oocytes; assay type: functional, cell-based, Oocyte; set-up: scale not given: the % may be the effect or the level left; details: Xenopus laevis oocytes expressing OATP3A1 (SLCO3A1), probe PGE2, read-out: Activity
T3 sequence (Q9UIG8 whole entry): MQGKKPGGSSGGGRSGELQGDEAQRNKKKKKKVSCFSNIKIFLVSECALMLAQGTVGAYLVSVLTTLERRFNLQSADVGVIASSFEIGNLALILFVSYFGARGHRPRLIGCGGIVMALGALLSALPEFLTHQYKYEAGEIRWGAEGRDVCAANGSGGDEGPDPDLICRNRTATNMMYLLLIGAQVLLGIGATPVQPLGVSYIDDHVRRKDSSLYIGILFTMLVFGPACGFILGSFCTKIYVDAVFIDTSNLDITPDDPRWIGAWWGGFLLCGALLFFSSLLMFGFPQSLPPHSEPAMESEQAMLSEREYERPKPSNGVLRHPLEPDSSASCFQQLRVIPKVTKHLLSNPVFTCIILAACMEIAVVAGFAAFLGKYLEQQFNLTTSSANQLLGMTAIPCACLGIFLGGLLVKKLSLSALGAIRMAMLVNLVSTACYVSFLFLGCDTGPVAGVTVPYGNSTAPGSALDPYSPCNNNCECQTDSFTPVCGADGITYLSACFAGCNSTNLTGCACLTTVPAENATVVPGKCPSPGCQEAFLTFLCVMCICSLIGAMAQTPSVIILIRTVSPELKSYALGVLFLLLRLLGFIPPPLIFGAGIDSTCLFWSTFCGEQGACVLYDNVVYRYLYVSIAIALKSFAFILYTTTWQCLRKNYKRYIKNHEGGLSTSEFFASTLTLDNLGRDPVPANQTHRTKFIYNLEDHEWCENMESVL

[5] = biological target: T1, Solute carrier organic anion transporter family member 3A1; assay: TP_TRANSPORTER: inhibition of PGE2 uptake (PGE2: 0.015 uM) by […] at 0.15uM in Xenopus laevis oocytes; assay type: functional, cell-based; set-up: scale not given: the % may be the effect or the level left; details: oocyte
[6] = biological target: T3, Solute carrier organic anion transporter family member 3A1 (SLCO3A1/OATP3A1); assay: TP_TRANSPORTER: inhibition of PGE2 uptake (PGE2: 0.015 uM) by Prostaglandin D2 at 0.15uM in Xenopus laevis oocytes; assay type: functional, cell-based, Oocyte; set-up: scale not given: the % may be the effect or the level left; details: Xenopus laevis oocytes expressing OATP3A1 (SLCO3A1), probe PGE2, read-out: Activity
[7] = biological target: T3, Solute carrier organic anion transporter family member 3A1 (SLCO3A1/OATP3A1); assay: TP_TRANSPORTER: inhibition of PGE2 uptake (PGE2: 0.015 uM) by P-aminohippuric acid at 0.15uM in Xenopus laevis oocytes; assay type: functional, cell-based, Oocyte; set-up: scale not given: the % may be the effect or the level left; details: Xenopus laevis oocytes expressing OATP3A1 (SLCO3A1), probe PGE2, read-out: Activity
[8] = substrate: CCCCC[C@H](O)/C=C/[C@H]1[C@H](O)CC(=O)[C@@H]1CCCCCCC(=O)O; assay: as §1; assay type: functional, cell-based, Oocyte
[9] = substrate: CC/C=C\C[C@H](O)/C=C/[C@H]1[C@H](O)CC(=O)[C@@H]1C/C=C\CCCC(=O)O; assay: as §1; assay type: functional, cell-based, Oocyte

In the case of `CC#CCC(C)[C@H](O)/C=C/[C@@H]1[C@H]2C/C(=C/CCCC(=O)O)C[C@H]2C[C@H]1O` (stereo not given in full) [ILOPROST], the Activity [1] is reported as “is not a substrate [-]”.

With `CCCCC[C@H](O)/C=C/[C@@H]1[C@@H](C/C=C\CCCC(=O)O)[C@@H](O)C[C@H]1O` [DINOPROST] the Activity [2] was “substrate [+]”, the Activity [1] was “substrate [+]” and the Activity [3] was 0%.

In the case of `CCCCC[C@H](O)/C=C/[C@H]1[C@H](O)CC(=O)[C@@H]1CCCCCCC(=O)O` [ALPROSTADIL], the Activity [2] is reported as “substrate [+]” and the activity at 0.15 µM [4] is reported as 0%.

In the case of `CN(Cc1cnc2nc(N)nc(N)c2n1)c1ccc(C(=O)N[C@@H](CCC(=O)O)C(=O)O)cc1` [METHOTREXATE], the Activity [1] is reported as “is not a substrate [-]”.

With `CCCCC[C@H](O)/C=C/[C@H]1OC(O)C[C@H](O)[C@@H]1C/C=C\CCCC(=O)O` (stereo not given in full) [THROMBOXANE B2] the Activity [1] was “is not a substrate [-]”.

With PROSTAGLANDIN E4 the Activity [5] was 0%.

With `CCCCC[C@H](O)/C=C/[C@H]1C(=O)C[C@H](O)[C@@H]1C/C=C\CCCC(=O)O` [PROSTAGLANDIN D2] the activity at 0.15 µM [6] was 30% and the Activity [1] was “is not a substrate [-]”.

For `Nc1ccc(C(=O)NCC(=O)O)cc1` [AMINOHIPPURIC ACID], the activity at 0.15 µM [7] was 30%.

With PROSTAGLANDIN E5 the Activity [2] was “substrate [+]”.

B1: Solute carrier organic anion transporter family member 3A1 (Homo sapiens) (protein)
chain: MQGKKPGGSSGGGRSGELQGDEAQRNKKKKKKVSCFSNIKIFLVSECALMLAQGTVGAYLVSVLTTLERRFNLQSADVGVIASSFEIGNLALILFVSYFGARGHRPRLIGCGGIVMALGALLSALPEFLTHQYKYEAGEIRWGAEGRDVCAANGSGGDEGPDPDLICRNRTATNMMYLLLIGAQVLLGIGATPVQPLGVSYIDDHVRRKDSSLYIGILFTMLVFGPACGFILGSFCTKIYVDAVFIDTSNLDITPDDPRWIGAWWGGFLLCGALLFFSSLLMFGFPQSLPPHSEPAMESEQAMLSEREYERPKPSNGVLRHPLEPDSSASCFQQLRVIPKVTKHLLSNPVFTCIILAACMEIAVVAGFAAFLGKYLEQQFNLTTSSANQLLGMTAIPCACLGIFLGGLLVKKLSLSALGAIRMAMLVNLVSTACYVSFLFLGCDTGPVAGVTVPYGNSTAPGSALDPYSPCNNNCECQTDSFTPVCGADGITYLSACFAGCNSTNLTGCACLTTVPAENATVVPGKCPSPGCQEAFLTFLCVMCICSLIGAMAQTPSVIILIRTVSPELKSYALGVLFLLLRLLGFIPPPLIFGAGIDSTCLFWSTFCGEQGACVLYDNVVYRYLYVSIAIALKSFAFILYTTTWQCLRKNYKRYIKNHEGGLSTSEFFASTLTLDNLGRDPVPANQTHRTKFIYNLEDHEWCENMESVL
Work on B1 yielded a Km [8] of 0.0485 µM and a Km [9] of 0.0555 µM.
